According to patent US8841321B2, “Quinoline derivatives as antibacterial agents” (Janssen Pharmaceutica NV, priority 2005, dated 2014):
In brackets after ≈: the same amount, converted by molar mass.

Tests used:
[1] = tested on: EFA 29212 (Enterococcus faecalis (ATCC29212)); test: Microtitre plate assay, IC90 determination; assay type: cell-based; details: for IC90: Enterococcus faecalis, ATCC29212, Enterococcus faecalis (ATCC29212), read-out: IC90 (μg/ml) EFA 29212; for IC90 (μg/ml) EFA 29212: Enterococcus faecalis (ATCC29212)
[2] = tested on: SPY 8668 (Streptococcus pyogens (ATCC8668)); test: Microtitre plate assay, IC90 determination; assay type: cell-based; details: for IC90: Streptococcus, ATCC8668, Streptococcus pyogens (ATCC8668), read-out: IC90 (μg/ml) SPY 8668; for IC90 (μg/ml) SPY 8668: Streptococcus pyogens (ATCC8668)
[3] = tested on: STA RMETH (methicilline resistant Staphylococcus aureus (MRSA), a clinical isolate from the University of Antwerp); test: Microtitre plate assay, IC90 determination; assay type: cell-based; details: for IC90: Staphylococcus aureus, MRSA, read-out: IC90 (μg/ml) STA RMETH
[4] = tested on: STA 29213 (Staphylococcus aureus (ATCC29213)); test: Microtitre plate assay, IC90 determination; assay type: cell-based; details: for IC90 (μg/ml) STA 29213: Staphylococcus aureus (ATCC29213)
In short: (§1)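 Growth-inhibition endpoint: resazurin added 3 h after inoculation, plates incubated overnight, fluorescence at 530/590 nm after 24 h at 37 °C. Inocula of roughly 10–60 CFU per well in Mueller-Hinton medium; compounds titrated five-fold. IC90 reported as μg/ml.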

[5] = tested on: SPN 6305 (Streptococcus pneumoniae (ATCC6305)); test: Microtitre plate assay, IC90 determination; assay type: cell-based; details: for IC90: Streptococcus pneumoniae, ATCC6305, Streptococcus pneumoniae (ATCC6305), read-out: IC90 (μg/ml) SPN 6305; for IC90 (μg/ml) SPN 6305: Streptococcus pneumoniae (ATCC6305)
In short: as §1

[6] = tested on: PAE 27853 (Pseudomonas aeruginosa (ATCC27853)); test: Microtitre plate assay, IC90 determination; assay type: cell-based; details: for IC90: Pseudomonas aeruginosa, ATCC27853, Pseudomonas aeruginosa (ATCC27853), read-out: IC90 (μg/ml) PAE 27853; for IC90 (μg/ml) PAE 27853: Pseudomonas aeruginosa (ATCC27853)
[7] = tested on: Staphylococcus aureus; test: Time kill assay (broth microdilution method); assay type: cell-based; details: S. aureus; for bactericidal activity in time kill assay: observed at 1 and 10 times MIC90
From the text: (§2) Bactericidal or bacteriostatic activity of the compounds may be determined in a time kill assay using the broth microdilution method*. In a time kill assay on Staphylococcus aureus and methicillin resistant S. aureus (MRSA), the starting inoculum of S. aurues and MRSA is 10^6 CPU/ml in Muller Hinton broth. The antibacterial compounds are used at the concentration of 0.1 to 10 times the MIC (i.e. IC90 as determined in microtitre plate assay). Wells receiving no antibacterial agent constitute the culture growth control. The plates containing the microorganism and the test compounds are incubated at 37° C. After 0, 4, 24, and 48 hrs of incubation samples are removed for determination of viable counts by serial dilution (10^−1 to 10^−6) in sterile PBS and plating (200 μl) on Mueller Hinton agar. The plates are incubated at 37° C. for 24 hours and the number of colonies are determined. Killing curves can be constructed by plotting the log10CFU per ml versus time. A bactericidal effect is commonly defined as 3-log10 decrease in number of CFU per ml as compared to untreated inoculum. The potential carryover effect of the drugs is removed by serial dilutions and counting the colonies at highest dilution used for plating. No carryover effect is observed at the dilution of 10^−2 used for plating. […] Antimicrob. Agents Chemother. 40, 839-845 (1996).

[8] = tested on: methicillin resistant S. aureus (MRSA); test: Time kill assay (broth microdilution method); assay type: cell-based, Staphylococcus aureus
From the text: as §2

[9] = tested on: BSU 43639 (Bacillus subtilis (ATCC43639)); test: Microtitre plate assay, IC90 determination; assay type: cell-based; details: Bacillus subtilis (ATCC43639)
[10] = tested on: LMO 49594 (Listeria monocytogenes (ATCC49594)); test: Microtitre plate assay, IC90 determination; assay type: cell-based; details: Listeria monocytogenes (ATCC49594)
[11] = tested on: STA 25923 (Staphylococcus aureus (ATCC25923)); test: Microtitre plate assay, IC90 determination; assay type: cell-based; details: Staphylococcus aureus (ATCC25923)

| melting point | IC90 (μg/ml) STA 29213 [4] | IC90 (μg/ml) EFA 29212 [1] | IC90 (μg/ml) SPY 8668 [2] | IC90 (μg/ml) SPN 6305 [5] | IC90 (μg/ml) PAE 27853 [6] | IC90 (μg/ml) STA RMETH [3] | Compound | further results |
| --- | --- | --- | --- | --- | --- | --- | --- | --- |
| 157 °C | 1.8 µg/mL (≈ 3.16 µM) | – | – | – | – | – | COc1nc2ccc(Br)cc2cc1C(c1ccccc1)C(O)(CCCCN(C)C)c1cc(F)cc(F)c1 (centres unmarked) [Compound 11] | IC90 [1]: 9 µg/mL (≈ 15.8 µM); IC90 [2]: 9 µg/mL (≈ 15.8 µM); IC90 [3]: 11.4 µg/mL (≈ 20 µM); IC90 [5]: 9 µg/mL (≈ 15.8 µM); IC90 [6]: 9 µg/mL (≈ 15.8 µM) |
| – | 46.4 µg/mL (≈ 79.5 µM) | 46.4 µg/mL (≈ 79.5 µM) | 11.6 µg/mL (≈ 19.9 µM) | 2.9 µg/mL (≈ 4.97 µM) | 23.2 µg/mL (≈ 39.8 µM) | – | COc1nc2ccc(Br)cc2cc1C(c1ccccc1)C(O)(CCCCN(C)C)c1ccc2ccccc2c1 (centres unmarked) [Compound 18] | MIC (1×MIC; MIC i.e. IC90 as determined in microtitre plate assay) [7]: 12 µg/mL (≈ 20.6 µM); growth of treated samples in time kill assay ([7]; at 0.1 times the MIC): followed the control in growth; bactericidal activity in time kill assay [7]: bactericidal activity; bactericidal activity in time kill assay [8]: marked bactericidal activity |
| 182 °C | 4.5 µg/mL (≈ 7.88 µM) | – | – | 11.4 µg/mL (≈ 20 µM) | – | 2.3 µg/mL (≈ 4.03 µM) | COc1nc2ccc(-c3ccco3)cc2cc1C(c1ccccc1)C(O)(CCCCN(C)C)c1ccc2ccccc2c1 (centres unmarked) [Compound 38] | IC90 [1]: 7.2 µg/mL (≈ 12.6 µM); IC90 [2]: 9.1 µg/mL (≈ 15.9 µM); IC90 [6]: 9.1 µg/mL (≈ 15.9 µM) |
| 121 °C | – | – | – | – | – | – | CNCCCCC(O)(c1ccccc1)C(c1ccccc1)c1cc2cc(Br)ccc2nc1OC (centres unmarked) [Compound 53] | IC90 [1]: 1.64 µg/mL (≈ 3.16 µM); IC90 [2]: 1.64 µg/mL (≈ 3.16 µM); IC90 [3]: 9.2 µg/mL (≈ 17.7 µM); IC90 ([4]; Staphylococcus aureus, ATCC29213, Staphylococcus aureus (ATCC29213), read-out: IC90 (μg/ml) STA 29213): 1.64 µg/mL (≈ 3.16 µM); IC90 [5]: 0.41 µg/mL (≈ 0.789 µM); IC90 [6]: 8.23 µg/mL (≈ 15.8 µM) |
| 166 °C | 9.3 µg/mL (≈ 15.9 µM) | 4.1 µg/mL (≈ 7.03 µM) | 46.4 µg/mL (≈ 79.5 µM) | 58.4 µg/mL (≈ 100 µM) | 4.1 µg/mL (≈ 7.03 µM) | 58.4 µg/mL (≈ 100 µM) | COc1nc2ccc(Br)cc2cc1C(c1ccccc1)C(O)(CCCCN(C)C)c1ccc2ccccc2c1 (centres unmarked) [Compound 22] | IC90 (μg/ml) BSU 43639 [9]: 58.4 µg/mL (≈ 100 µM); IC90 (μg/ml) LMO 49594 [10]: 11.6 µg/mL (≈ 19.9 µM); IC90 (μg/ml) STA 25923 [11]: 46.4 µg/mL (≈ 79.5 µM) |
| 150 °C | 53.5 µg/mL (≈ 100 µM) | – | – | 53.5 µg/mL (≈ 100 µM) | – | – | COc1nc2ccc(Br)cc2cc1C(c1ccccc1)C(O)(CCCCN(C)C)c1cccnc1 (centres unmarked) [Compound 15] | – |
| 160 °C | 9.7 µg/mL (≈ 15.8 µM) | – | – | 21.8 µg/mL (≈ 35.5 µM) | – | – | COc1ccc2cc(C(O)(CCCCN(C)C)C(c3ccccc3)c3cc4ccc(Br)cc4nc3OC)ccc2c1 (centres unmarked) [Compound 30] | – |
| 138 °C | 2.02 µg/mL (≈ 3.16 µM) | – | – | 1.61 µg/mL (≈ 2.52 µM) | – | 2.55 µg/mL (≈ 3.99 µM) | CCN(CC)CCCCC(O)(CCc1cccc2ccccc12)C(c1ccccc1)c1cc2cc(Br)ccc2nc1OC (centres unmarked) [Compound 72] | – |
| 170 °C | 1.9 µg/mL (≈ 3.26 µM) | – | – | 58.4 µg/mL (≈ 100 µM) | – | 9.3 µg/mL (≈ 15.9 µM) | COc1nc2cccc(Br)c2cc1C(c1ccccc1)C(O)(CCCCN(C)C)c1ccc2ccccc2c1 (centres unmarked) [Compound 28] | – |
| 170 °C | 9.3 µg/mL (≈ 15.9 µM) | 5.2 µg/mL (≈ 8.91 µM) | 4.6 µg/mL (≈ 7.88 µM) | 11.6 µg/mL (≈ 19.9 µM) | 2.3 µg/mL (≈ 3.94 µM) | 10.4 µg/mL (≈ 17.8 µM) | COc1nc2ccc(Br)cc2cc1C(c1ccccc1)C(O)(CCCCN(C)C)c1ccc2ccccc2c1 (centres unmarked) [Compound 17] | IC90 (μg/ml) BSU 43639 [9]: 5.2 µg/mL (≈ 8.91 µM); IC90 (μg/ml) LMO 49594 [10]: 5.8 µg/mL (≈ 9.94 µM); IC90 (μg/ml) STA 25923 [11]: 2.3 µg/mL (≈ 3.94 µM) |
| 188 °C | 8.3 µg/mL (≈ 15.9 µM) | 18.6 µg/mL (≈ 35.5 µM) | 1.7 µg/mL (≈ 3.25 µM) | 1.9 µg/mL (≈ 3.63 µM) | 8.3 µg/mL (≈ 15.9 µM) | – | CNCCCC(O)(c1ccc(F)cc1)C(c1ccccc1)c1cc2cc(Br)ccc2nc1OC (centres unmarked) [Compound 68] | – |
| 179 °C | 3.8 µg/mL (≈ 7.11 µM) | 8.5 µg/mL (≈ 15.9 µM) | 8.5 µg/mL (≈ 15.9 µM) | 1.9 µg/mL (≈ 3.55 µM) | 2.7 µg/mL (≈ 5.05 µM) | 10.7 µg/mL (≈ 20 µM) | COc1ccc2cc(C(O)(CCCCN(C)C)C(c3ccccc3)c3cc4ccccc4nc3OC)ccc2c1 (centres unmarked) [Compound 34] | – |
| – | – | – | – | – | – | – | O=C(O)c1cn(C2CC2)c2cc(N3CCNCC3)c(F)cc2c1=O [ciprofloxacin, reference compound] | bactericidal activity in time kill assay [7]: bactericidal activity; bactericidal activity in time kill assay [8]: no bactericidal effect |
| 164 °C | 1.9 µg/mL (≈ 3.1 µM) | 1.9 µg/mL (≈ 3.1 µM) | 1.9 µg/mL (≈ 3.1 µM) | 4.3 µg/mL (≈ 7.01 µM) | 1.9 µg/mL (≈ 3.1 µM) | 10.9 µg/mL (≈ 17.8 µM) | COc1ccc2cc(C(O)(CCCCN(C)C)C(c3ccccc3)c3cc4c(Br)cccc4nc3OC)ccc2c1 (centres unmarked) [Compound 26] | – |
| 98 °C | 9.1 µg/mL (≈ 15.8 µM) | – | – | 11.5 µg/mL (≈ 19.9 µM) | – | – | COc1nc2ccc(Br)cc2cc1C(c1ccccc1)C(O)(CCCCN(C)C)c1ccc2c(c1)OCO2 (centres unmarked) [Compound 9] | – |
| 96 °C | 1.9 µg/mL (≈ 3.1 µM) | 1.9 µg/mL (≈ 3.1 µM) | – | 2.4 µg/mL (≈ 3.91 µM) | 1.9 µg/mL (≈ 3.1 µM) | 1.9 µg/mL (≈ 3.1 µM) | COc1ccc2cc(C(O)(CCCCN(C)C)C(c3ccccc3)c3cc4cc(Br)ccc4nc3OC)ccc2c1 (single isomer, unassigned) [Compound 5] | IC90 [2]: 1.5 µg/mL (≈ 2.44 µM); IC90 (μg/ml) BSU 43639 [9]: 1.9 µg/mL (≈ 3.1 µM); IC90 (μg/ml) LMO 49594 [10]: 1.9 µg/mL (≈ 3.1 µM) |
